Measured values as given in ChEMBL document CHEMBL3137667, “[Drug-induced liver injury; fourteenth updated edition of the bibliographic database of liver injuries and related drugs]” (Gastroenterol Clin Biol, 2004).

Tests used:
[1] = human
[2] = human; remark: listed apart in the source
[3] = human; remark: listed apart in the source
[4] = Highest frequency of acute liver toxicity observed during clinical trials, expressed as a percentage. [column '% AIGUE' in source]; settings: human
[5] = human; remark: listed apart in the source
[6] = Highest frequency of moderate liver toxicity observed during clinical trials, expressed as a percentage. [column '% BIOL' in source]; settings: human
[7] = human; remark: listed apart in the source
[8] = human; remark: listed apart in the source
[9] = human; remark: listed apart in the source
[10] = human, serum
[11] = human; remark: listed apart in the source
[12] = human; remark: listed apart in the source
[13] = human, serum, 4383 h
[14] = human, serum; remark: listed apart in the source
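Wherever Hepatotoxicity (association with vascular disease) is given: count of indexed literature references reporting vascular liver injury in humans, e.g. peliosis hepatitis, hepatic veno-occlusive disease or Budd-Chiari syndrome.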
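Wherever Hepatotoxicity (benign tumour) is given: value is a count of indexed literature references citing a benign tumour confirmed by histopathology.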
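Wherever Hepatotoxicity (choleostasis) is given: human cholestatic liver injury, shown by histopathology or by peak ALT or AST elevation over alkaline phosphatase ratio below 2, value counts indexed literature reports.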
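Wherever Hepatotoxicity (chronic liver disease) is given: chronic liver injury confirmed by histopathology or persistently raised serum aminotransferase activity beyond 6 months, value given as the count of indexed literature references.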
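Wherever Hepatotoxicity (cirrhosis) is given: value is a count of indexed literature references reporting cirrhosis confirmed by histopathology.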
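Wherever Hepatotoxicity (cytolytic) is given: human cytolytic liver injury, shown by histopathology or by a ratio above 5 of peak ALT or AST elevation to alkaline phosphatase elevation, value counts indexed references.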
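Wherever Hepatotoxicity (granulomatous hepatitis) is given: value is a count of indexed literature references reporting granulomatous liver disease confirmed by histopathology.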
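Wherever Hepatotoxicity (malignant tumour) is given: malignant tumour confirmed by histopathology, value gives the count of indexed literature references reporting it.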
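Wherever Hepatotoxicity (severe hepatitis) is given: human clinical data: severe hepatitis, meaning potentially life-threatening liver failure or clinically observed cases, the value counts how many indexed literature references report it.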
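Wherever Hepatotoxicity (steatosis) is given: steatosis confirmed by histopathology, value is the count of indexed references.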

| Structure (SMILES) | Hepatotoxicity (severe hepatitis) [1] | Hepatotoxicity (choleostasis) [2] | Hepatotoxicity (association with vascular disease) [3] | Hepatotoxicity (acute) [4] | Hepatotoxicity (cirrhosis) [5] | Hepatotoxicity (moderate) [6] | Hepatotoxicity (malignant tumour) [7] | Hepatotoxicity (cytolytic) [8] | Hepatotoxicity (benign tumour) [9] | Hepatotoxicity (moderate) [10] | Hepatotoxicity (steatosis) [11] | Hepatotoxicity (granulomatous hepatitis) [12] | Hepatotoxicity (chronic liver disease) [13] | Hepatotoxicity (acute) [14] |
| --- | --- | --- | --- | --- | --- | --- | --- | --- | --- | --- | --- | --- | --- | --- |
| CN[C@@H]1[C@@H](O)[C@@H](O[C@@H]2[C@@H](O)[C@H](O[C@H]3O[C@H](CN)[C@@H](O)[C@H](O)[C@H]3O)[C@@H](N)C[C@H]2NC(=O)[C@@H](O)CN)OC[C@]1(C)O [ISEPAMICIN] | 0 | 0 | 0 | 0% | 0 | 30% | 0 | 0 | 0 | 22 | 0 | 0 | 0 | 0 |
| CC(=O)OCC(=O)[C@@]1(O)CC[C@H]2[C@@H]3CCC4=CC(=O)C=C[C@]4(C)[C@@]3(F)[C@@H](O)C[C@@]21C [ISOFLUPREDONE ACETATE] | 0 | 0 | 0 | 0% | 0 | 0% | 0 | 0 | 0 | 2 | 0 | 0 | 0 | 0 |
| COC(=O)C1=C(C)NC(C)=C(C(=O)OC(C)C)C1c1cccc2nonc12 (centres undefined) [ISRADIPINE] | 0 | 0 | 0 | 0% | 0 | 8.3% | 0 | 0 | 0 | 6 | 0 | 0 | 0 | 0 |
| CNC1(c2ccccc2Cl)CCCCC1=O (centres undefined) [KETAMINE] | 0 | 0 | 0 | 0% | 0 | 23.5% | 0 | 0 | 0 | 2 | 0 | 0 | 0 | 0 |
| CN1CCC(=C2c3ccccc3CC(=O)c3sccc32)CC1 [KETOTIFEN] | 0 | 0 | 0 | 0% | 0 | 0% | 0 | 0 | 0 | 0 | 0 | 0 | 0 | 1 |
| CCOC(=O)C1=C(C)NC(C)=C(C(=O)OCC)C1c1ccccc1/C=C/C(=O)OC(C)(C)C [LACIDIPINE] | 0 | 0 | 0 | 0% | 0 | 0% | 0 | 0 | 0 | 1 | 0 | 0 | 0 | 0 |
